Test results from patent US8129355B2, “Ketone ligands for modulating the expression of exogenous genes via an ecdysone receptor complex” (priority 2002, dated 2012).
Like-named read-outs stand apart in the source and are kept apart here.

What was measured:
[1] = target: T1, GAL4 DBD-CfEcR(DEF)/VP16AD-MmRXRE (Choristoneura fumiferana, UniProt O77240); experiment: cell-based; settings: for 13B3 Rel Max FI: maximum fold induction at any concentration relative to that of GS-E ligand
T1 sequence (O77240 1-513): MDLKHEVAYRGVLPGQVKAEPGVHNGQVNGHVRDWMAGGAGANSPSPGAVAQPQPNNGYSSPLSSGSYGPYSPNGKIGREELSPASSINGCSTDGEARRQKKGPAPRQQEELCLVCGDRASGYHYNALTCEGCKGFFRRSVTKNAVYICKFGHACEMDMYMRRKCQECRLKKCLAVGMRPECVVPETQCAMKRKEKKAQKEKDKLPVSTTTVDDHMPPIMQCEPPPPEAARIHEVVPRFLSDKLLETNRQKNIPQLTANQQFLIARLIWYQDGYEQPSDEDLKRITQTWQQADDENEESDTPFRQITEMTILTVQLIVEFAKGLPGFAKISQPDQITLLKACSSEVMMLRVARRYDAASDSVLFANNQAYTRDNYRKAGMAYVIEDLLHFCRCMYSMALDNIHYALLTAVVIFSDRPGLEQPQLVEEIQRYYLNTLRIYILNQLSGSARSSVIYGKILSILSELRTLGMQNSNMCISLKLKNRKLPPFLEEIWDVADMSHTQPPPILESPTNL
Description: GAL4 DBD-CfEcR(DEF)/VP16AD-MmRXRE: The wild-type D, E, and F domains from spruce budworm Choristoneura fumiferana EcR (“CfEcR-DEF”; SEQ ID NO: 1) were fused to a GAL4 DNA binding domain (“Gal4 DBD1-147”; nucleotides 31 to 471 of SEQ ID NO: 2) and placed under the control of the SV40e promoter of pM vector (PT3119-5, Clontech, Palo Alto, Calif.). The D and E domains from Mus Musculus RXR (“MmRXR-DE”; SEQ ID NO: 10) were fused to the transactivation domain from VP16 (“VP16AD”; SEQ ID NO: 5) and placed under the control of the SV40e promoter of the pVP16 vector (PT3127-5, Clontech, Palo Alto, Calif.).
CHO cells were transienty transfected with transcription cassettes for GAL4 DBD-CfEcR(DEF) and for VP16AD-MmRXRE controlled by SV40e promoters. Stably transfected cells were selected using Hygromycin. Individually isolated CHO cell clones were transiently transfected with a GAL4 RE-luciferase reporter (pMR-Luc, Stratagene, La Jolla, Calif.). The 13B3 clone was selected using Zeocin.
Cells were trypsinized and diluted to a concentration of 2.5×10^4 cells mL. 100 μL of cell suspension was placed in each well of a 96 well plate and incubated at 37° C. under 5% CO2 for 24 h. Ligand stock solutions were prepared in DMSO and diluted 300 fold for all treatments. Dose response testing consisted of 8 concentrations ranging from 33 μM to 0.01 μM.
Luciferase reporter gene expression was measured 48 h after cell treatment using Bright-Glo™ Luciferase Assay System from Promega (E2650). Luminescence was detected at room temperature using a Dynex MLX microtiter plate luminometer.
Fold inductions were calculated from single dose testing by dividing relative light units (RLU) in ligand treated cells by RLU in DMSO treated cells. BC50s were calculated from dose response data using a three-parameter logistic model.

[2] = target: T2, Bombyx mori EcR (VP16 fusion, switch construct CVBE) with 6XEcRE LacZ reporter (Bombyx mori, UniProt P49881); experiment: Z3 assay: β-galactosidase (LacZ) reporter gene fold induction in stably transformed human 293 kidney cells (clone Z3); type: cell-based
T2 construct: expressed in transfected cells; host or cells: Human 293 kidney (HEK-293) cells, retrovirally infected, clone Z3
T2 sequence (P49881 86-606 limits assumed): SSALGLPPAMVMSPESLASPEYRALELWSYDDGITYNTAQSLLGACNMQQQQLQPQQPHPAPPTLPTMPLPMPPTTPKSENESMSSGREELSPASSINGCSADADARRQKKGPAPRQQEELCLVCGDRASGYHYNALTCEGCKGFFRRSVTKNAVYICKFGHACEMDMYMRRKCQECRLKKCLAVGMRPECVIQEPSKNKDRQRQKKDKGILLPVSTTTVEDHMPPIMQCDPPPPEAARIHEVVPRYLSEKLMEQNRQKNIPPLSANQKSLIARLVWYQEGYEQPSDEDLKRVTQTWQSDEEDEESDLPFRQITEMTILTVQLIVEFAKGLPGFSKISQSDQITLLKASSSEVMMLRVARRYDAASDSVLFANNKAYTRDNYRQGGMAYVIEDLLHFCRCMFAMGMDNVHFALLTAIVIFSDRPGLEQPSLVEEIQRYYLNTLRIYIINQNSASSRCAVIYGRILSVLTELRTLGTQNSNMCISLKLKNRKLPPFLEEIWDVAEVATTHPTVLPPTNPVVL
T2 sequence (P19793 1-462 partner): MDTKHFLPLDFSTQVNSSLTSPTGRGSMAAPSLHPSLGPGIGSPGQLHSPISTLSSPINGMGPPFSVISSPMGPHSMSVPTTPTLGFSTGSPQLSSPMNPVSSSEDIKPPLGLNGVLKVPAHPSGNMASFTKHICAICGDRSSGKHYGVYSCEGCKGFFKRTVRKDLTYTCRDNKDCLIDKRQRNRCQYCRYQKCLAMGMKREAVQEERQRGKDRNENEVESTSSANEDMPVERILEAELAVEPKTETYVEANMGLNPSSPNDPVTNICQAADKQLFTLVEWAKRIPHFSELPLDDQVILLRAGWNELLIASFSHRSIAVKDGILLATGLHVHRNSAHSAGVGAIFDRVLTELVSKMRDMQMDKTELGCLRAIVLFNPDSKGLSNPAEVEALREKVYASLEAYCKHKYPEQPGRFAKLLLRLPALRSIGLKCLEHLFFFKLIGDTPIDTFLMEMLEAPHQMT
Description: Dr. F. Gage provided a population of stably transformed cells containing CVBE and 6XEcRE as described in Suhr, S. T., Gil, E. B., Senut M. C., Gage, F. H. (1998) Proc. Natl. Acad. Sci. USA 95, 7999-804. Human 293 kidney cells, also referred to as HEK-293 cells, were sequentially infected with retroviral vectors encoding first the switch construct CVBE, and subsequently the reporter construct 6XEcRE Lac Z. The switch construct contained the coding sequence for amino acids 26-546 from Bombyx mori EcR (BE) (Iatrou) inserted in frame and downstream of the VP16 transactivation domain (VBE). A synthetic ATG start codon was placed under the control of cytomegalovirus (CVBE) immediate early promoter and flanked by long terminal repeats (LTR). The reporter construct contained six copies of the ecdysone response element (EcRE) binding site placed upstream of LacZ and flanked on both sides with LTR sequences (6XEcRE).
Dilution cloning was used to isolate individual clones. Clones were selected using 450 ug/mL G418 and 100 ng/mL puromycin. Individual clones were evaluated based on their response in the presence and absence of test ligands. Clone Z3 was selected for screening and SAR purposes.
Human 293 kidney cells stably transformed with CVBE and 6XEcRE lack were maintained in Minimum Essential Medium (Mediates, 10-010-CV) containing 10% FBS (Life Technologies, 26140-087), […] G418 (Mediates, 30-234-CR), and […] (Sigma, P-7255), at 37° C. in an atmosphere containing 5% CO2 and were subculture when they reached 75% confluence.
Z3 cells were seeded into 96-well tissue culture plates at a concentration of 2.5×10^3 cells per well and incubated at 37° C. in 5% CO2 for twenty-four hours. Stock solutions of ligands were prepared in DMSO. Ligand stock solutions were diluted 100 fold in media and 50 μL of this diluted ligand solution (33 μM) was added to cells. The final concentration of DMSO was maintained at […] in both controls and treatments.
Reporter gene expression was evaluated 48 hours after treatment of cells, β-galactosidase activity was measured using Gal Screen™ bioluminescent reporter gene assay system from Tropix (GSY1000).
Flanking both constructs are long terminal repeats, G418 and puromycin are selectable markers, CMV is the cytomegalovirus promoter, VBE is coding sequence for amino acids 26-546 from Bombyx mori EcR inserted downstream of the VP16 transactivation domain, 6×EcRE is six copies of the ecdysone response element, lacZ encodes for the reporter enzyme β-galactosidase. Suhr, S. T., Gil, E. B., Senut M. C., Gage, F. H. (1998) Proc. Natl. Acad. Sci. USA 95, 7999-804. Swevers, L., Drevet, J. R., Lunke, M. D., Iatrou, K. (1995) Insect Biochem. Mol. Biol. 25, 857-866.

[3] = maximum fold induction at any concentration relative to that of GS-E ligand
[4] = single dose 33 μM; ligand treated / DMSO treated cells
[5] = single dose 33 μM, RLU ligand treated / RLU DMSO treated cells
[6] = average; dose response, three-parameter logistic model; read-out: Z3 LC50

Row | Structure (SMILES) | Fold Induction Average, 13B3 Assay (33 μM) [1] | Fold Induction Average, Z3 Assay (33 μM) [2, 4] | also measured
1 | COc1cccc(C(=O)NC2(C(=O)c3cccc(C)c3)CCCC2)c1C [Example 2] | – | – | EC50 [1]: > 33 µM; fold induction at 33 µM ([1]; CHO, read-out: Fold Induction Average, 13B3 Assay (33 μM)): 2620; 13B3 Rel Max FI [1]: 0.24; Z3 Rel Max FI [2, 3]: 0.46; fold induction at 33 µM ([2]; read-out: Fold Induction Average, Z3 Assay (33 μM)): 786; CC50 ([2]; read-out: Z3 LC50; average; dose response, three-parameter logistic model): 3.38 µM
2 | CC(C)(NC(=O)c1ccccc1)C(=O)c1ccccc1 [Example 104] | 0 | 1 | –
3 | CCC(CC)(NC(=O)c1cccc(OC)c1C)C(=O)c1ccc2c(c1)OCO2 [Example 59] | 0 | 2 | –
4 | Cc1ccc(C(=O)NC(C(=O)c2ccccc2)C(C)(C)C)cc1 (stereo not drawn) [Example 96] | 0 | 1 | –
5 | COc1cccc(C(=O)NC2(C(=O)c3cc(C)cc(C)c3)CCN(C(=O)OC(C)(C)C)CC2)c1C [Example 110] | 2 | 1 | –
6 | COc1ccc(C(=O)C(C)(CC(C)C)NC(=O)c2cccc(OC)c2C)cc1 (stereo not drawn) [Example 118] | 0 | 1 | –
7 | COc1cccc(C(=O)NC2(C(=O)c3ccc4c(c3)OCO4)CCCC2)c1C [Example 43] | 2 | 3 | –
8 | CC(=O)NC(C(=O)c1ccccc1)c1ccccc1 (stereo not drawn) [Example 94] | 1 | 1 | –
9 | COc1cccc(C(=O)C(NC(=O)c2cccc(OC)c2C)C(C)(C)C)c1 (stereo not drawn) [Example 114] | 2 | 3 | –
10 | COc1cccc(C(=O)NC(C)(C)C(=O)c2ccccc2)c1 [Example 107] | 2 | 1 | –
11 | CC(C)(C)C(NC(=O)c1ccc([N+](=O)[O-])cc1)C(=O)c1ccccc1 (stereo not drawn) [Example 98] | 0 | 1 | –
12 | CC(=O)NC(C(=O)c1ccccc1)c1ccc(C)cc1 (stereo not drawn) [Example 93] | 0 | 1 | –
13 | COc1cccc(C(=O)NC2(C(=O)c3ccccc3)CCCC2)c1C [Example 1] | – | 71 | 13B3 Rel Max FI [1]: 0.00; EC50 ([1]; read-out: 13B3 EC50, average, dose response, three-parameter logistic model): > 33 µM; Fold Induction Average, 13B3 Assay (33 μM) [1, 5]: 3; CC50 [2, 6]: 2.67 µM; Z3 Rel Max FI [2, 3]: 0.14
14 | COc1ccc(C(=O)C2(NC(=O)c3cccc(OC)c3C)CCCC2)cc1 [Example 41] | 2 | 4 | –
15 | CC(=O)NC(C(=O)c1ccc(C)cc1)c1ccccc1 (stereo not drawn) [Example 92] | 0 | 1 | –
16 | COc1cccc(C(=O)NC(C(=O)c2cc(C)cc(C)c2)C(C)(C)C)c1C (stereo not drawn) [Example 115] | 1 | 15 | –
17 | COc1cccc(C(=O)NC2(C(=O)c3cccc(C)c3)CCC(=O)CC2)c1C [Example 61] | 0 | 102 | –
18 | COc1cccc(C(=O)NC2(C(=O)c3ccccc3C)CCCC2)c1C [Example 39] | 24 | 30 | –
19 | CC(C)(NC(=O)c1ccc(Cl)cc1)C(=O)c1ccccc1 [Example 95] | – | 4 | Fold Induction Average, 13B3 Assay (33 μM) [1, 5]: 1; CC50 [2, 6]: 0.82 µM; Z3 Rel Max FI [2, 3]: 2.27
20 | COc1cccc(C(=O)C(C)(Cc2ccccc2)NC(=O)c2cccc(OC)c2C)c1 (stereo not drawn) [Example 100] | 0 | 2 | –
21 | COc1cccc(C(=O)NC(C)(C(=O)c2ccc3c(c2)OCO3)C(C)C)c1C (stereo not drawn) [Example 111] | 0 | 1 | –
22 | COc1ccccc1C(=O)NC(C)(C)C(=O)c1cccc(C)c1 [Example 116] | 4 | 1 | –
